Inconclusive results and toxic doses are left out. Rule for the calls: active = survival T/C of 150% or more; inactive = T/C below 125% in these data.
Test system: CD2F1 mice, L1210 leukemia ip, survival T/C
Test: NCI In Vivo Anticancer Drug Screen. Data for tumor model L1210 Leukemia (intraperitoneal) in CD2F1 (CDF1) mice
Settings: higher = longer survival
Outline: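 Tumor-bearing mice (transplanted tumor) were split into treated and vehicle control groups, and the measured endpoint of each treated group was divided by that of its vehicle controls.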

[1] = endpoint: mean survival time, dose: 100.0 mg/kg/injection, schedule: Q04DX003 (ip), vehicle: saline with Tween-80
[2] = endpoint: mean survival time, dose: 200.0 mg/kg/injection, schedule: Q04DX003 (ip), vehicle: saline with Tween-80
[3] = endpoint: mean survival time, dose: 400.0 mg/kg/injection, schedule: Q04DX003 (ip), vehicle: saline with Tween-80
[4] = endpoint: mean survival time, dose: 100.0 mg/kg/injection, schedule: Q01DX009 (ip), vehicle: saline with Tween-80
[5] = endpoint: mean survival time, dose: 200.0 mg/kg/injection, schedule: Q01DX009 (ip), vehicle: saline with Tween-80
[6] = endpoint: mean survival time, dose: 400.0 mg/kg/injection, schedule: Q01DX009 (ip), vehicle: saline with Tween-80
[7] = endpoint: mean survival time, dose: 12.5 mg/kg/injection, schedule: Q01DX009 (ip), vehicle: other
[8] = endpoint: mean survival time, dose: 25.0 mg/kg/injection, schedule: Q01DX009 (ip), vehicle: other
[9] = endpoint: mean survival time, dose: 50.0 mg/kg/injection, schedule: Q01DX009 (ip), vehicle: other
[10] = endpoint: mean survival time, dose: 100.0 mg/kg/injection, schedule: Q01DX009 (ip), vehicle: other
[11] = endpoint: mean survival time, dose: 200.0 mg/kg/injection, schedule: Q01DX009 (ip), vehicle: other
[12] = endpoint: mean survival time, dose: 100.0 mg/kg/injection, schedule: Q01DX001 (ip), vehicle: saline with Tween-80
[13] = endpoint: mean survival time, dose: 200.0 mg/kg/injection, schedule: Q01DX001 (ip), vehicle: saline with Tween-80
[14] = endpoint: mean survival time, dose: 400.0 mg/kg/injection, schedule: Q01DX001 (ip), vehicle: saline with Tween-80

Measured: T/C

CC(=N\NC(=O)c1ccccc1)/C(C)=N/NC(=O)c1ccccc1
inactive: [1] 90 % of control | [2] 86 % of control | [3] 90 % of control

COC(=O)CC(=O)c1ccc(OC(C)C)cc1
inactive: [4] 100 % of control | [1] 87 % of control | [5] 107 % of control | [2] 90 % of control | [6] 104 % of control | [3] 87 % of control

Cc1[nH]nc2[nH]cnc(=S)c12
inactive: endpoint: mean survival time, dose: 12.5 mg/kg/injection, schedule: Q01DX005 (ip), vehicle: saline with Tween-80 90 % of control | endpoint: mean survival time, dose: 25.0 mg/kg/injection, schedule: Q01DX005 (ip), vehicle: saline with Tween-80 88 % of control | endpoint: mean survival time, dose: 50.0 mg/kg/injection, schedule: Q01DX005 (ip), vehicle: saline with Tween-80 87 % of control | endpoint: mean survival time, dose: 100.0 mg/kg/injection, schedule: Q01DX005 (ip), vehicle: saline with Tween-80 94 % of control | endpoint: mean survival time, dose: 200.0 mg/kg/injection, schedule: Q01DX005 (ip), vehicle: saline with Tween-80 96 % of control

CC1=NN(c2ccc(S(=O)(=O)O)cc2)C(=O)C1
inactive: [4] 93 % of control | [1] 96 % of control | [5] 87 % of control | [2] 104 % of control | [3] 98 % of control

CCOC(=O)C(C(=O)OCC)N(Cc1ccccc1)Cc1ccccc1
inactive: [7] 93 % of control | [8] 93 % of control | [9] 96 % of control | [10] 93 % of control | [11] 90 % of control

O=[N+]([O-])c1ccc(N/N=C(\c2ccccc2)C2OCCC2c2ccccc2)c([N+](=O)[O-])c1 (centres undefined)
inactive: [1] 97 % of control | [2] 91 % of control | [3] 94 % of control

OCCN=Cc1c[nH]c2ccccc12
inactive: [12] 95 % of control | [13] 106 % of control | [14] 103 % of control

C=C(C)C12CC(C)C34OC(CCCCCCCCCCC)(OC1C3C1OC1(CO)C(O)C1(O)C(=O)C(C)=CC14C)O2 (centres undefined)
inactive: endpoint: mean survival time, dose: 0.05 mg/kg/injection, schedule: Q01DX009 (ip), vehicle: other 94 % of control | endpoint: mean survival time, dose: 0.1 mg/kg/injection, schedule: Q01DX009 (ip), vehicle: other 89 % of control | endpoint: mean survival time, dose: 0.2 mg/kg/injection, schedule: Q01DX009 (ip), vehicle: other 89 % of control | endpoint: mean survival time, dose: 0.4 mg/kg/injection, schedule: Q01DX009 (ip), vehicle: other 89 % of control

C(=N/N=C/c1ccsc1)/c1ccsc1
inactive: endpoint: median survival time, dose: 50.0 mg/kg/injection, schedule: Q04DX002 (ip), vehicle: saline with Tween-80 90 % of control | endpoint: median survival time, dose: 100.0 mg/kg/injection, schedule: Q04DX002 (ip), vehicle: saline with Tween-80 90 % of control | endpoint: median survival time, dose: 200.0 mg/kg/injection, schedule: Q04DX002 (ip), vehicle: saline with Tween-80 90 % of control | endpoint: median survival time, dose: 400.0 mg/kg/injection, schedule: Q04DX002 (ip), vehicle: saline with Tween-80 90 % of control

COC1NC(=O)NC(=O)C1=[N+]=[N-] (centres undefined)
inactive: endpoint: mean survival time, dose: 2.5 mg/kg/injection, schedule: Q01DX009 (ip), vehicle: saline with Tween-80 113 % of control

Cc1ccc(S(=O)(=O)OC2CCSCC2)cc1
inactive: endpoint: mean survival time, dose: 100.0 mg/kg/injection, schedule: Q01DX001 (ip), vehicle: saline 102 % of control | endpoint: mean survival time, dose: 200.0 mg/kg/injection, schedule: Q01DX001 (ip), vehicle: saline 94 % of control | endpoint: mean survival time, dose: 400.0 mg/kg/injection, schedule: Q01DX001 (ip), vehicle: saline 94 % of control

CC1=C(N)C(=O)N(C)C1=O
inactive: endpoint: mean survival time, dose: 25.0 mg/kg/injection, schedule: Q04DX002 (ip), vehicle: saline with Tween-80 98 % of control | endpoint: mean survival time, dose: 50.0 mg/kg/injection, schedule: Q04DX002 (ip), vehicle: saline with Tween-80 95 % of control | endpoint: mean survival time, dose: 100.0 mg/kg/injection, schedule: Q04DX002 (ip), vehicle: saline with Tween-80 98 % of control | endpoint: mean survival time, dose: 200.0 mg/kg/injection, schedule: Q04DX002 (ip), vehicle: saline with Tween-80 98 % of control

CC(=O)Nc1ccc([N+](=O)[O-])cc1[N+](=O)[O-]
inactive: [1] 100 % of control | [2] 102 % of control

N=C(N)c1cccc(NC(=O)CCc2ccccc2)c1
inactive: [12] 97 % of control | [13] 93 % of control | [14] 92 % of control

NC(=O)C(c1ccccc1)N1CCOCC1 (centres undefined)
inactive: endpoint: mean survival time, dose: 100.0 mg/kg/injection, schedule: Q01DX009 (ip), vehicle: saline 100 % of control | endpoint: mean survival time, dose: 200.0 mg/kg/injection, schedule: Q01DX009 (ip), vehicle: saline 101 % of control | endpoint: mean survival time, dose: 400.0 mg/kg/injection, schedule: Q01DX009 (ip), vehicle: saline 105 % of control

[NH2-].[NH2-].[NH2-].[NH2-].[NH2-].[NH2-].[Ru+6]
inactive: endpoint: mean survival time, dose: 12.5 mg/kg/injection, schedule: Q04DX002 (ip), vehicle: saline 86 % of control

CCOc1ccc(NC(=S)N(C)C)cc1
inactive: endpoint: mean survival time, dose: 50.0 mg/kg/injection, schedule: Q01DX009 (ip), vehicle: saline with Tween-80 94 % of control | [4] 94 % of control | [1] 89 % of control | [5] 90 % of control | [2] 96 % of control

CCCCOC(N)=O
inactive: [4] 100 % of control | [5] 105 % of control | [6] 97 % of control

Nc1nc2c(ncn2-c2cccc(NC(=O)c3cc(S(=O)(=O)F)ccc3Cl)c2)c(=O)[nH]1
inactive: [12] 88 % of control | [13] 94 % of control | [14] 94 % of control

CCOC(=O)CCC[P+](c1ccccc1)(c1ccccc1)c1ccccc1
inactive: [1] 100 % of control | [2] 100 % of control | [3] 98 % of control

CC1(C)CC(C)(OC(=O)c2ccccc2)[N+]([O-])=N1 (centres undefined)
inactive: endpoint: mean survival time, dose: 25.0 mg/kg/injection, schedule: Q01DX009 (ip), vehicle: Klucel (hydroxypropylcellulose) (HPC) 100 % of control | endpoint: mean survival time, dose: 50.0 mg/kg/injection, schedule: Q01DX009 (ip), vehicle: Klucel (hydroxypropylcellulose) (HPC) 98 % of control | endpoint: mean survival time, dose: 100.0 mg/kg/injection, schedule: Q01DX009 (ip), vehicle: Klucel (hydroxypropylcellulose) (HPC) 98 % of control | endpoint: mean survival time, dose: 200.0 mg/kg/injection, schedule: Q01DX009 (ip), vehicle: Klucel (hydroxypropylcellulose) (HPC) 95 % of control | endpoint: mean survival time, dose: 400.0 mg/kg/injection, schedule: Q01DX009 (ip), vehicle: Klucel (hydroxypropylcellulose) (HPC) 98 % of control

CCc1ccc(NC(=O)c2ccccc2C(=O)O)cc1
inactive: [4] 102 % of control | [1] 101 % of control | [5] 98 % of control | [2] 97 % of control | [6] 105 % of control | [3] 97 % of control

[Cl][Pt+2][Cl].[NH-]CCC([NH-])C(=O)O (centres undefined)
inactive: endpoint: mean survival time, dose: 12.5 mg/kg/injection, schedule: Q04DX003 (ip), vehicle: saline 107 % of control | endpoint: mean survival time, dose: 25.0 mg/kg/injection, schedule: Q04DX003 (ip), vehicle: saline 121 % of control | endpoint: mean survival time, dose: 50.0 mg/kg/injection, schedule: Q04DX003 (ip), vehicle: saline 115 % of control

NNc1ncnc2c1cnn2C1OC(CO)C(O)C1O (centres undefined)
inactive: [7] 103 % of control | [8] 103 % of control | [9] 103 % of control | [10] 110 % of control | [11] 112 % of control | endpoint: mean survival time, dose: 400.0 mg/kg/injection, schedule: Q01DX009 (ip), vehicle: other 89 % of control

— PubChem BioAssay AID256 (DTP/NCI, 2004)
